Results: US20250195521A1 (Revolution Medicines, Inc., priority 2020, published 2025)
Where two headings read alike, the source gives them in different places.

Assays:
[1] = tested on: Capan-1 cells (K-Ras G12V); test: CellTiter-Glo cell viability, Capan-1; format: cell-based, human; conditions: Homo sapiens, CAPAN-1, 120 h, K-Ras G12V, 5-day treatment; read-out: Capan-1 Cell Viability IC50
How it was run: (§1)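 Compounds were dispensed directly onto seeded cells and incubated until day 5, then plates were equilibrated at room temperature for about 30 min before CellTiter-Glo luminescence readout. Signals were normalized as (sample/average DMSO)×100 and fitted with a four-parameter logistic model.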

[2] = tested on: NCI-H358 cells (K-Ras G12C); test: CellTiter-Glo cell viability, NCI-H358; format: cell-based, human; conditions: Homo sapiens, NCI-H358, 120 h, K-Ras G12C, 5-day treatment; read-out: H358 Cell Viability IC50
How it was run: as §1

KRAS G12D = KRAS G12D (Homo sapiens (Human), UniProt P01116+P62937, G12D); test: Ras-Raf disruption/FRET/MOA assay (BRAF RBD, Cyclophilin A); format: biochemical; conditions: read-out: KRAS G12D FRET IC50
How it was run: (§2)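 His6-K-Ras-GMPPNP (12.5 nM), GST-BRAF RBD (50 nM) and tagless Cyclophilin A (25 μM) were combined in 25 mM HEPES pH 7.3 with 100 mM NaCl, 5 mM MgCl2, 0.1% BSA and 0.002% Tween20, with compound as a 10-point 3-fold series from 30 μM final, then incubated 3 h at 25° C.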

NRAS WT = NRAS WT (Homo sapiens (Human), UniProt P01111+P62937); test: as above; format: biochemical
How it was run: (§3)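 TR-FRET readout: anti-His Eu-W1024 (10 nM) and anti-GST allophycocyanin (50 nM) added after 3 h, 25° C compound incubation, then 1.5 h more. Decrease in FRET ratio versus DMSO wells marks Ras:RAF disruption; IC50 reported.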

KRAS Q61H = KRAS Q61H (Homo sapiens (Human), UniProt P01116+P62937, Q61H); test: as above; format: biochemical
How it was run: as §2

KRAS WT = KRAS WT (Homo sapiens (Human), UniProt P01116+P62937); test: as above; format: biochemical; conditions: read-out: KRAS WT FRET data IC50
How it was run: as §2

NRAS G12C = NRAS G12C (Homo sapiens (Human), UniProt P01111+P62937, G12C); test: as above; format: biochemical; conditions: read-out: NRAS G12C FRET data IC50
How it was run: as §3

KRAS G12C = KRAS G12C (Homo sapiens (Human), UniProt P01116+P62937, G12C); test: as above; format: biochemical; conditions: read-out: KRAS G12C FRET IC50
How it was run: as §2

KRAS G13C = KRAS G13C (Homo sapiens (Human), UniProt P01116+P62937, G13C); test: as above; format: biochemical; conditions: read-out: KRAS G13C FRET IC50
How it was run: as §2

KRAS G12V = KRAS G12V (Homo sapiens (Human), UniProt P01116+P62937, G12V); test: as above; format: biochemical; conditions: read-out: KRAS G12V FRET IC50
How it was run: as §2

NRAS Q61R = NRAS Q61R (Homo sapiens (Human), UniProt P01111+P62937, Q61R); test: as above; format: biochemical
How it was run: as §3

KRAS G13D = KRAS G13D (Homo sapiens (Human), UniProt P01116+P62937, G13D); test: as above; format: biochemical; conditions: read-out: KRAS G13D FRET data IC50
How it was run: as §2

KRAS G12S = KRAS G12S (Homo sapiens (Human), UniProt P01116+P62937, G12S); test: as above; format: biochemical; conditions: read-out: KRAS G12S FRET IC50
How it was run: as §2

[3] = tested on: K-Ras G12C (NCI-H358 cells); test: Potency assay: pERK in NCI-H358 cells; format: cell-based, human; conditions: Homo sapiens; NCI-H358 cells, 4 hours; read-out: pERK EC50 (H358 KRAS G12C)
How it was run: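 Cells plated the day before were exposed for 4 h at 37° C, 5% CO2 to a 10-point, 3-fold DMSO dilution series (10 mM top stock), in duplicate. Phospho-ERK was read by AlphaLISA SureFire Ultra or by In-Cell Western with DRAQ5 DNA stain, and IC50 came from a 4-parameter sigmoidal fit.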

AsPC-1 (K-Ras G12D) = test: Potency assay: pERK; format: cell-based, human; conditions: Homo sapiens
Description: The purpose of this assay is to measure the ability of test compounds to inhibit K-Ras in cells. […] This procedure measures a decrease in cellular pERK in response to test compounds. The procedure described below in NCI-H358 cells is applicable to K-Ras G12C.
NCI-H358 cells were grown and maintained using media and procedures recommended by the ATCC. On the day prior to compound addition, cells were plated in 384-well cell culture plates (40 μl/well) and grown overnight in a 37° C., 5% CO2 incubator. Test compounds were prepared in 10, 3-fold dilutions in DMSO, with a high concentration of 10 mM. On the day of assay, 40 nL of test compound was added to each well of cell culture plate using an Echo550 liquid handler (LabCyte®). Concentrations of test compound were tested in duplicate. After compound addition, cells were incubated 4 hours at 37° C., 5% CO2. Following incubation, culture medium was removed and cells were washed once with phosphate buffered saline.
In some experiments, cellular pERK level was determined using the AlphaLISA SureFire Ultra p-ERK1/2 Assay Kit (PerkinElmer). Cells were lysed in 25 μL lysis buffer, with shaking at 600 RPM at room temperature. Lysate (10 μL) was transferred to a 384-well Opti-plate (PerkinElmer) and 5 μL acceptor mix was added. After a 2-hour incubation in the dark, 5 μL donor mix was added, plate was sealed, and incubated 2 hours at room temperature. Signal was read on an Envision plate reader (PerkinElmer) using standard AlphaLISA settings. Analysis of raw data was carried out in Excel (Microsoft) and Prism (GraphPad). Signal was plotted vs. the decadal logarithm of compound concentration, and IC50 was determined by fitting a 4-parameter sigmoidal concentration response model.
In other experiments, cellular pERK was determined by In-Cell Western. Following compound treatment, cells were washed twice with 200 μL tris buffered saline (TBS) and fixed for 15 minutes with 150 μL 4% paraformaldehyde in TBS. Fixed cells were washed 4 times for 5 minutes with TBS containing 0.1% Triton X-100 (TBST) and then blocked with 100 μL Odyssey blocking buffer (LI-COR) for 60 minutes at room temperature. Primary antibody (PERK, CST-4370, Cell Signaling Technology) was diluted 1:200 in blocking buffer, and 50 μL was added to each well and incubated overnight at 4° C. Cells were washed 4 times for 5 minutes with TBST. Secondary antibody (IR-800CW rabbit, LI-COR, diluted 1:800) and DNA stain DRAQ5 (LI-COR, diluted 1:2000) were added and incubated 1-2 hours at room temperature. Cells were washed 4 times for 5 minutes with TBST. Plates were scanned on a Li—COR Odyssey CLx Imager. Analysis of raw data was carried out in Excel (Microsoft) and Prism (GraphPad). Signal was plotted vs. the decadal logarithm of compound concentration, and IC50 was determined by fitting a 4-parameter sigmoidal concentration response model.

[4] = ASPC1, AsPC-1 KRAS G12D, read-out: pERK EC50

Sequence of KRAS G12S (P01116 other isoform, or with tags, fused parts or gaps G12S): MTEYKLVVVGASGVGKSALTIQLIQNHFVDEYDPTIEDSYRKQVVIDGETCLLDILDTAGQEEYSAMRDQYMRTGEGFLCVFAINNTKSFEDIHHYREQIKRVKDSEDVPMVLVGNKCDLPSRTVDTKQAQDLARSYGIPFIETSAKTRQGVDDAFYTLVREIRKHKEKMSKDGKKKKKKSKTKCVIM
Sequence of KRAS G12S (P62937 whole entry): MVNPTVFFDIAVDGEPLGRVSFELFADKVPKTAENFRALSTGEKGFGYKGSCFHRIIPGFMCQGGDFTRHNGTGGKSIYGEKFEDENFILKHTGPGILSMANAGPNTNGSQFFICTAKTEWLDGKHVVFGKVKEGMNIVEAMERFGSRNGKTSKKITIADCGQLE
Sequence of NRAS Q61R (P01111 whole entry Q61R): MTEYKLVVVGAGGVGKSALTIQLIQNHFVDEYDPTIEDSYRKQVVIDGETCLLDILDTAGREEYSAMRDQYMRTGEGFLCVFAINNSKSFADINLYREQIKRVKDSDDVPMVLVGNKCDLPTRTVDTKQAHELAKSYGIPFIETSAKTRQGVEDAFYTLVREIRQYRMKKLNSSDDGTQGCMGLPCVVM
Sequence of NRAS Q61R (P62937 whole entry): as the sequence (P62937 whole entry) above
Sequence of KRAS Q61H (P01116 other isoform, or with tags, fused parts or gaps Q61H): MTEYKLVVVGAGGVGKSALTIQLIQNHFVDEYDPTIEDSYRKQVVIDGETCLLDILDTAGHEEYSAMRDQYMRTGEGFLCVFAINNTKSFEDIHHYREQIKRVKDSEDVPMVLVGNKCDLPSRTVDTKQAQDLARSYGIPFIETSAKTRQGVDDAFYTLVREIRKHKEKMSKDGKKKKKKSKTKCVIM
Sequence of KRAS Q61H (P62937 whole entry): as the sequence (P62937 whole entry) above
Sequence of NRAS G12C (P01111 whole entry G12C): as the sequence (P01111 whole entry Q61R) above, with G12C, R61Q counted along it
Sequence of NRAS G12C (P62937 whole entry): as the sequence (P62937 whole entry) above
Sequence of KRAS G12C (P01116-2 other isoform, or with tags, fused parts or gaps G12C): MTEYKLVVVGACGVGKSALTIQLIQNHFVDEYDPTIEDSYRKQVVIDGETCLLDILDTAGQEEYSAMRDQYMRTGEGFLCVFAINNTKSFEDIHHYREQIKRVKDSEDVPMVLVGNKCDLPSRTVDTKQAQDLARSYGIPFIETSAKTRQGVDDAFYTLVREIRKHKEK
Sequence of KRAS G12C (P62937 whole entry): as the sequence (P62937 whole entry) above
Sequence of KRAS G12D (P01116 other isoform, or with tags, fused parts or gaps G12D): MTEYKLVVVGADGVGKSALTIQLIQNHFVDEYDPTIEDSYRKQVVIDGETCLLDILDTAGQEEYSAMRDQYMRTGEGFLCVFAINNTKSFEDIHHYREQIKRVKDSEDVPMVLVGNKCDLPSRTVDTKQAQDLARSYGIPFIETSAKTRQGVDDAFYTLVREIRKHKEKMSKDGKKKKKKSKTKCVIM
Sequence of KRAS G12D (P62937 whole entry): as the sequence (P62937 whole entry) above
Sequence of KRAS WT (P01116 other isoform, or with tags, fused parts or gaps): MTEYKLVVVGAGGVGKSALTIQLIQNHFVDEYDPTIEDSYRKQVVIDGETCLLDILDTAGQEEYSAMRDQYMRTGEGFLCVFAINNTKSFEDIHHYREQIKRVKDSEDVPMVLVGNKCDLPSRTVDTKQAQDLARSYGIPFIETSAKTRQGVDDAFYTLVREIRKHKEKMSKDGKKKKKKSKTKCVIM
Sequence of KRAS WT (P62937 whole entry): as the sequence (P62937 whole entry) above
Sequence of KRAS G13C (P01116 other isoform, or with tags, fused parts or gaps G13C): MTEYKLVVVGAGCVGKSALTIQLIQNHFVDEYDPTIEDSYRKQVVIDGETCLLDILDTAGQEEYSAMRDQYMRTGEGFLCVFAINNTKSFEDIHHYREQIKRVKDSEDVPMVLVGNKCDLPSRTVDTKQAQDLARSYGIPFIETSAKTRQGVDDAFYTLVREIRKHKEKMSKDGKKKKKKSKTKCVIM
Sequence of KRAS G13C (P62937 whole entry): as the sequence (P62937 whole entry) above
Sequence of KRAS G13D (P01116 other isoform, or with tags, fused parts or gaps G13D): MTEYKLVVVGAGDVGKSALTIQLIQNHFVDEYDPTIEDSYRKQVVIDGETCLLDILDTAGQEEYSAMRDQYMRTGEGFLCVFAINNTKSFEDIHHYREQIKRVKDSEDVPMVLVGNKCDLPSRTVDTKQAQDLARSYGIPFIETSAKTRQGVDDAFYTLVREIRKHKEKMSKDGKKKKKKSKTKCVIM
Sequence of KRAS G13D (P62937 whole entry): as the sequence (P62937 whole entry) above
Sequence of KRAS G12V (P01116 other isoform, or with tags, fused parts or gaps G12V): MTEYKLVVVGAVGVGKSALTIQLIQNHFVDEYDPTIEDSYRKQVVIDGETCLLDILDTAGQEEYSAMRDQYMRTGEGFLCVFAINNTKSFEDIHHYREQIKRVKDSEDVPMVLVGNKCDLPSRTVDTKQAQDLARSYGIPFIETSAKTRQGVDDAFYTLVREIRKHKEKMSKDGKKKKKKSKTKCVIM
Sequence of KRAS G12V (P62937 whole entry): as the sequence (P62937 whole entry) above
Sequence of NRAS WT (P01111 whole entry): as the sequence (P01111 whole entry Q61R) above, with R61Q counted along it
Sequence of NRAS WT (P62937 whole entry): as the sequence (P62937 whole entry) above

CCn1c(-c2cccnc2[C@H](C)OC)c2c3cc(ccc31)-c1csc(n1)C[C@H](NC(=O)[C@H](C(C)C)N(C)C(=O)N1CCO[C@@H](c3ccccc3)C1)C(=O)N1CCC[C@H](N1)C(=O)OCC(C)(C)C2 [Compound A600]
IC50 [1]: 0.1 to 1 µM | IC50 [2]: 0.1 to 1 µM | IC50 (KRAS G12D): 0.1 to 1 µM | IC50 (NRAS WT): 0.01 to 0.1 µM | IC50 (KRAS Q61H): 0.01 to 0.1 µM | IC50 (KRAS WT): 0.01 to 0.1 µM | IC50 (NRAS G12C): 0.01 to 0.1 µM | IC50 (KRAS G12C): 0.01 to 0.1 µM | IC50 (KRAS G13C): 0.1 to 1 µM | IC50 (KRAS G12V): 0.1 to 1 µM | IC50 (NRAS Q61R): 0.1 to 1 µM | IC50 (KRAS G13D): 0.1 to 1 µM | IC50 (KRAS G12S): 0.1 to 1 µM | EC50 [3]: < 5 µM

CCn1c(-c2cccnc2[C@H](C)OC)c2c3cc(ccc31)-c1cc(O)cc(c1)C[C@H](NC(=O)[C@H](C(C)C)N(C)C(=O)CN(C)C(=O)[C@H]1CN1)C(=O)N1CCC[C@H](N1)C(=O)OCC(C)(C)C2 [Example 42A]
EC50 (AsPC-1 (K-Ras G12D); ASPC1, read-out: pERK EC50): < 5 µM

CCn1c(-c2cccnc2[C@H](C)OC)c2c3cc(ccc31)-c1cc(O)cc(c1)C[C@H](NC(=O)[C@H](C(C)C)N(C)C(=O)c1ccc([C@@H]3CN3)cc1)C(=O)N1CCC[C@H](N1)C(=O)OCC(C)(C)C2 [Example 131]
EC50 (AsPC-1 (K-Ras G12D); [4]): < 5 µM

CCn1c(-c2cccnc2[C@H](C)OC)c2c3cc(ccc31)-c1cc(O)cc(c1)C[C@H](NC(=O)[C@H](C(C)C)N(C)C(=O)N1CCN(C(=O)[C@H]3CN3)CC1)C(=O)N1CCC[C@H](N1)C(=O)OCC(C)(C)C2 [Example 177, 4-((R)-aziridine-2-carbonyl)-N-((2S)-1-(((6^3S,4S)-1^1-ethyl-2^5-hydroxy-1^2-(2-((S)-1-methoxyethyl)pyridin-3-yl)-10,10-dimethyl-5,7-dioxo-6^1,6^2,6^3,6^4,6^5,6^6-hexahydro-1^1H-8-oxa-1 (5,3)-indola-6 (1,3)-pyridazina-2 (1,3)-benzenacycloundecaphane-4-yl)amino)-3-methyl-1-oxobutan-2-yl)-N-methylpiperazine-1-carboxamide]
EC50 (AsPC-1 (K-Ras G12D); [4]): < 5 µM

CCn1c(-c2cccnc2[C@H](C)OC)c2c3cc(ccc31)-c1cc(O)cc(c1)C[C@H](NC(=O)[C@H](C1CCCC1)N1CC[C@@]3(CCN(C(=O)[C@@H]4N[C@@H]4C4CC4)C3)C1=O)C(=O)N1CCC[C@H](N1)C(=O)OCC(C)(C)C2 [Example 215]
EC50 (AsPC-1 (K-Ras G12D); [4]): < 5 µM

CCn1c(-c2cccnc2[C@H](C)OC)c2c3cc(ccc31)-c1csc(n1)C[C@H](NC(=O)[C@H](C1CCCC1)N1CC[C@]3(CCN(C(=O)[C@@H]4N[C@@H]4C4CC4)C3)C1=O)C(=O)N1CCC[C@H](N1)C(=O)OCC(C)(C)C2 [Example 234]
EC50 (AsPC-1 (K-Ras G12D); [4]): < 5 µM
